Several values for one entry are separate records, joined by “and”; a condition that tells them apart may be missing. Equal values may be shown once.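 Grown in 96-well plates, cells were treated for 48 hours with each compound at five concentrations. Insufficient inhibition: endpoint recorded as highest concentration tested. Abbreviation: GI50, concentration required for 50% inhibition of growth. TGI: total growth inhibition.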
Experiments:
Assay in all cases: NCI tumour cell line growth inhibition, 48 h
SNB-19 CNS = tested on: SNB-19 CNS
XF 498 CNS = tested on: XF 498 CNS
SNB-78 CNS = tested on: SNB-78 CNS
DLD-1 colon = tested on: DLD-1 colon
HOP-62 NSCLC = tested on: HOP-62 NSCLC
K-562 leukemia = tested on: K-562 leukemia
SF-295 CNS = tested on: SF-295 CNS
MCF7 breast = tested on: MCF7 breast
ACHN renal = tested on: ACHN renal
T-47D breast = tested on: T-47D breast

Row | SMILES | TGI (SNB-19 CNS) | TGI (XF 498 CNS) | TGI (SNB-78 CNS) | TGI (DLD-1 colon) | TGI (HOP-62 NSCLC) | TGI (K-562 leukemia) | TGI (SF-295 CNS) | GI50 (SNB-19 CNS) | TGI (MCF7 breast) | GI50 (DLD-1 colon) | TGI (ACHN renal) | GI50 (HOP-62 NSCLC) | GI50 (K-562 leukemia) | TGI (T-47D breast) | GI50 (XF 498 CNS) | GI50 (MCF7 breast) | GI50 (SNB-78 CNS) | GI50 (ACHN renal) | GI50 (T-47D breast) | GI50 (SF-295 CNS)
1 | C[C@]12CC[C@H](O)CC1CCC[C@@H]2O (stereo not given in full) | > 100 µM | > 100 µM | > 100 µM | > 100 µM | > 100 µM | > 100 µM | > 100 µM | – | – | – | – | – | – | – | – | – | – | – | – | –
2 | COc1nc(C(Cl)(Cl)Cl)c(Cl)c(OC)c1Cl | > 59.3 µM and 59.4 µM | 54.5 µM | 72.3 µM | 79.8 µM | > 62.8 µM and 22.5 µM | > 63.4 µM and 94.2 µM | > 56.9 µM and 75.3 µM | > 40.8 µM | 66.8 µM | 31.7 µM | > 54.1 µM and 73.5 µM | > 43.2 µM | > 42.6 µM | 77.6 µM | – | – | – | – | – | –
3 | Cn1c(=O)c2nc3sc4ccccc4c(=N)n3c2n(C)c1=O | > 100 µM | > 100 µM | > 100 µM | > 100 µM | > 100 µM | > 100 µM | > 100 µM | – | – | – | > 100 µM | – | – | – | – | – | – | – | – | –
4 | Cc1ccc(Sc2cc([N+](=O)[O-])cc(Sc3ccc(C)cc3)c2Sc2ccc(C)cc2)cc1 | > 100 µM | > 100 µM | > 100 µM | > 100 µM | > 100 µM | > 100 µM | > 100 µM | – | – | – | > 100 µM | – | – | – | – | – | – | – | – | –
5 | OC1OC2COC(c3ccccc3)OC2C(O)C1O (stereo not given) | > 100 µM | > 100 µM | > 100 µM | > 100 µM | > 100 µM | > 100 µM | > 100 µM | – | – | – | > 100 µM | – | – | – | – | – | – | – | – | –
6 | Nc1c(-c2ccc(-c3c(N)[n+]([O-])c4ccccc4[n+]3[O-])cc2)[n+]([O-])c2ccccc2[n+]1[O-] | 29 µM | 23.9 µM | 62.3 µM | 27.2 µM | 32.3 µM | > 100 µM | 36.7 µM | – | – | – | 31.1 µM | – | – | – | – | – | – | – | – | –
7 | COc1ccc(/C=C\c2cc(OC)c(OC(C)=O)c(OC)c2)cc1 | > 100 µM | > 100 µM | 73.9 µM | > 100 µM | 85.6 µM | 31 µM | – | – | – | – | > 100 µM | – | – | – | – | – | – | – | – | –
8 | O=C1OC(=O)C2C1C1(c3ccccc3)OC2(c2ccccc2)c2c(Br)c(Br)c(Br)c(Br)c21 (stereo not given) | > 100 µM | > 100 µM | > 100 µM | > 100 µM | > 100 µM | > 100 µM | > 100 µM | – | – | – | – | – | – | – | – | – | – | – | – | –
9 | CN=C(NC#N)NCc1ccccc1 | > 100 µM | > 100 µM | > 100 µM | > 100 µM | > 100 µM | – | > 100 µM | – | – | – | > 100 µM | – | – | – | – | – | – | – | – | –
10 | CCCCCCCCCCCCCCCc1nc(SCC(=O)O)n[nH]1 | > 100 µM | > 100 µM | > 100 µM | 56.1 µM | > 100 µM | > 100 µM | > 100 µM | – | – | – | > 100 µM | – | – | – | – | – | – | – | – | –
11 | COc1ccc(/C=C2\CCC(CN(C)C)C2=O)cc1 (stereo not given) | 23.2 µM | 16.3 µM | 51.9 µM | 12.5 µM | 33.6 µM | 7.25 µM | 32.1 µM | – | 6.03 µM | – | 21.3 µM | – | – | – | – | – | – | – | – | –
12 | CC(=O)c1ccc(-c2ccc(C(C)=O)s2)s1 | > 100 µM | > 100 µM | > 100 µM | > 100 µM | > 100 µM | > 100 µM | > 100 µM | – | – | – | > 100 µM | – | – | – | – | – | – | – | – | –
13 | N[C@@H](Cc1ccc(N(CCCl)CCCl)cc1)C(=O)O | > 100 µM and 41.6 µM and 204 µM | 49.3 µM and 66.3 µM | 83.7 µM and 205 µM | > 92 µM and 193 µM | – | 190 µM | 49.2 µM and 72.1 µM and 128 µM | 30.4 µM and 23 µM | > 100 µM and 50.4 µM and 97.2 µM | 24.5 µM | 21.5 µM and 78.2 µM | 28.7 µM and 4.34 µM | 37.8 µM | > 100 µM and 116 µM | 20.9 µM and 22 µM | 5.53 µM and 6.95 µM | 25.6 µM | 3.99 µM | 34.3 µM | 3.95 µM and 16 µM
14 | COC(=O)C1=CCS(=O)(=O)C1 | > 100 µM | > 100 µM | > 100 µM | > 100 µM | > 100 µM | > 100 µM | > 100 µM | – | – | – | > 100 µM | – | – | – | – | – | – | – | – | –
15 | CC12CCC(C)(c3cc(O)c(O)cc31)c1cc(O)c(O)cc12 | 30.2 µM | 34 µM | 39.2 µM | 45.7 µM | 67.8 µM | 29.5 µM | 46.8 µM | – | – | – | 32.5 µM | – | – | – | – | – | – | – | – | –
16 | O=CN/C=C\c1cc(O)ccc1O | > 100 µM | 28.8 µM | > 100 µM | 31.6 µM | 60.2 µM | > 100 µM | > 100 µM | – | – | – | 28.2 µM | – | – | – | – | – | – | – | – | –
17 | O=c1c2ccc(Br)cc2nc(-c2ccccc2)n1NC1OC(CO)C(O)C(O)C1O (stereo not given) | > 100 µM | > 100 µM | > 100 µM | – | > 100 µM | > 100 µM | > 100 µM | – | – | – | > 100 µM | – | – | – | – | – | – | – | – | –
18 | COc1cc(C2C(C(=O)Nc3ccccc3C)=C(C)NC(C)=C2C(=O)Nc2ccccc2C)ccc1O | > 100 µM | > 100 µM | > 100 µM | > 100 µM | > 100 µM | > 100 µM | > 100 µM | – | – | – | > 100 µM | – | – | – | – | – | – | – | – | –
19 | O=c1cc(/C=C/c2ccccc2)c2ccc(O/C(=C\c3ccccc3)c3nc4ccccc4c(=O)o3)cc2o1 | > 100 µM | 70.5 µM | 70.8 µM | > 100 µM | 84.7 µM | > 100 µM | > 100 µM | – | – | – | 61.7 µM | – | – | – | – | – | – | – | – | –
